According to PMC9090415, “Discovery of small molecule inhibitors of Plasmodium falciparum apicoplast DNA polymerase” (Journal of Enzyme Inhibition and Medicinal Chemistry, 2022):
pIC50: −log10 of the molar value.

Target: P. falciparum apicoplast DNA polymerase (Pf-apPOL) (Plasmodium falciparum, UniProt Q8ILY1)
Assay: Fluorescence-based high-throughput DNA polymerase assay (molecular beacon), primary screen and dose-response;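 as to % inhibition ApPOL 90': test concentration in µM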;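 as to % inhibition apPOL 180': test concentration in µM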
Type: biochemical
Settings: for DNA Pol: unit not given, 90 min, 10 µM; for pIC50: supplemental file 2, sheet IC50 nontoxic compounds, Pf-apPOL
Summary of the method: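 Single-point screening used 10 µM compound with 20 nM polymerase, 20 nM hairpin substrate and 6 µM dNTPs for 90 min at 25 °C. Confirmatory titrations (2.5–80 µM) followed fluorescence at three times, and IC50 was derived from a fit including a cooperativity term n.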

Chain of P. falciparum apicoplast DNA polymerase (Pf-apPOL) (Q8ILY1 entry or part of it): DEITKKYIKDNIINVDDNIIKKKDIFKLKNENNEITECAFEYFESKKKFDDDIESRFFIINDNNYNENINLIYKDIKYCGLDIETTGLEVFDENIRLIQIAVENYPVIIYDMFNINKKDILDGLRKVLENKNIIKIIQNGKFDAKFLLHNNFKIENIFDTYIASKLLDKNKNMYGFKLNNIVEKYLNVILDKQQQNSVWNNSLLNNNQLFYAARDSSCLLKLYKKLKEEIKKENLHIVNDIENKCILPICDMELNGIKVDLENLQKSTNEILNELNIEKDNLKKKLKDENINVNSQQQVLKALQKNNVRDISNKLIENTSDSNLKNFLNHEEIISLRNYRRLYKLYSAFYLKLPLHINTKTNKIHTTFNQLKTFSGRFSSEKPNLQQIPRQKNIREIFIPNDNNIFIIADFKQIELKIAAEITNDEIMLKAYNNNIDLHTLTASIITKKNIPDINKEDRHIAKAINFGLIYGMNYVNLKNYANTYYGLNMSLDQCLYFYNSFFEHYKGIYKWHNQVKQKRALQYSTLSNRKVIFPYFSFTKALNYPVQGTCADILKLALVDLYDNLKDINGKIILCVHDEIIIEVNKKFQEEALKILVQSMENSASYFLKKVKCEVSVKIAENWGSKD

SMILES: O=c1[nH]c2ccc(Br)cc2c(-c2ccccc2)c1C1=NNC(c2ccco2)C1 (stereo not shown) [KU0045540]
- % inhibition Apo pol 10' (DRC-1, concentration 2.5): 38.7065%
- % inhibition Apo pol 10' (DRC-1, concentration 5): 32.1153%
- % inhibition Apo pol 10' (DRC-1, concentration 10): 58.5243%
- % inhibition Apo pol 10' (DRC-1, concentration 20): 75.2705%
- % inhibition Apo pol 10' (DRC-1, concentration 40): 80.4182%
- % inhibition Apo pol 10' (DRC-1, concentration 80): 78.0702%
- % inhibition Apol 90' (DRC-1, 90', concentration 2.5): 12.887%
- % inhibition Apol 90' (DRC-1, 90', concentration 5): 9.899%
- % inhibition Apol 90' (DRC-1, 90', concentration 10): 32.8734%
- % inhibition Apol 90' (DRC-1, 90', concentration 20): 57.4465%
- % inhibition Apol 90' (DRC-1, 90', concentration 40): 76.3337%
- % inhibition Apol 90' (DRC-1, 90', concentration 80): 82.7097%
- % inhibition apPOL 180' (DRC-1, 180', concentration 2.5): 0.7615%
- % inhibition apPOL 180' (DRC-1, 180', concentration 5): -2.038%
- % inhibition apPOL 180' (DRC-1, 180', concentration 10): 16.3913%
- % inhibition apPOL 180' (DRC-1, 180', concentration 20): 40.539%
- % inhibition apPOL 180' (DRC-1, 180', concentration 40): 67.9853%
- % inhibition apPOL 180' (DRC-1, 180', concentration 80): 81.6451%
- % inhibition Apo pol 5' (DRC-2, 5', concentration 2.5 (unit not given)): 15%
- % inhibition Apo pol 5' (DRC-2, 5', concentration 20 (unit not given)): 65%
- % inhibition Apo pol 5' (DRC-2, 5', concentration 40 (unit not given)): 65%
- % inhibition Apol 40' (DRC-2, 40', concentration 2.5 (unit not given)): 15%
- % inhibition Apol 40' (DRC-2, 40', concentration 10 (unit not given)): 49%
- % inhibition Apol 40' (DRC-2, 40', concentration 20 (unit not given)): 77%
- % inhibition ApPOL 90' (DRC-2, 90', concentration 10 (unit not given)): 49%
- % inhibition ApPOL 90' (DRC-2, 90', concentration 20 (unit not given)): 77%
- % inhibition ApPOL 90' (DRC-2, 90', concentration 80 (unit not given)): 72%
- % inhibition apPOL 180' (DRC-2, 180', concentration 20 (unit not given)): 72%
- % inhibition Apo pol 5' (DRC-2, 5', concentration 2.5): 15%
- % inhibition Apo pol 5' (DRC-2, 5', concentration 5): 27%
- % inhibition Apo pol 5' (DRC-2, 5', concentration 10): 40%
- % inhibition Apo pol 5' (DRC-2, 5', concentration 20): 65%
- % inhibition Apo pol 5' (DRC-2, 5', concentration 40): 65%
- % inhibition Apo pol 5' (DRC-2, 5', concentration 80): 39%
- % inhibition Apol 40' (DRC-2, 40', concentration 2.5): 15%
- % inhibition Apol 40' (DRC-2, 40', concentration 5): 33%
- % inhibition Apol 40' (DRC-2, 40', concentration 10): 49%
- % inhibition Apol 40' (DRC-2, 40', concentration 20): 77%
- % inhibition Apol 40' (DRC-2, 40', concentration 40): 81%
- % inhibition Apol 40' (DRC-2, 40', concentration 80): 67%
- % inhibition ApPOL 90' (DRC-2, 90', concentration 2.5): 15%
- % inhibition ApPOL 90' (DRC-2, 90', concentration 2.5 (unit not given)): 15%
- % inhibition ApPOL 90' (DRC-2, 90', concentration 5): 31%
- % inhibition ApPOL 90' (DRC-2, 90', concentration 10): 49%
- % inhibition ApPOL 90' (DRC-2, 90', concentration 20): 77%
- % inhibition ApPOL 90' (DRC-2, 90', concentration 40): 83%
- % inhibition ApPOL 90' (DRC-2, 90', concentration 80): 72%
- % inhibition apPOL 180' (DRC-2, 180', concentration 2.5): 11%
- % inhibition apPOL 180' (DRC-2, 180', concentration 5): 22%
- % inhibition apPOL 180' (DRC-2, 180', concentration 10): 41%
- % inhibition apPOL 180' (DRC-2, 180', concentration 20): 72%
- % inhibition apPOL 180' (DRC-2, 180', concentration 40): 82%
- % inhibition apPOL 180' (DRC-2, 180', concentration 80): 75%
- DNA Pol (primary screen value of the 186 hits): 43
- DNA Pol (primary screen value, head "DNA Pol"): 43

SMILES: O=C(Cn1ccc2c(=O)[nH]ccc21)Nc1cc(F)ccc1F [Molecule 42]
- pIC50: 4.90

SMILES: O=C(Nc1cccc(C(=O)Nc2ccc(S(=O)(=O)O)c3cc(S(=O)(=O)O)cc(S(=O)(=O)O)c23)c1)Nc1cccc(C(=O)Nc2ccc(S(=O)(=O)O)c3cc(S(=O)(=O)O)cc(S(=O)(=O)O)c23)c1 [Molecule 39]
- pIC50: 5.17

SMILES: O=C(Cc1cc(=O)[nH]c(SCc2ccccc2)n1)Nc1ccc2c(c1)OCO2 [Molecule 46]
- pIC50: 4.81
